Data reported in article PMC8234218, “In Vitro and In Vivo Efficacies of the Linear and the Cyclic Version of an All-D-Enantiomeric Peptide Developed for the Treatment of Alzheimer’s Disease” (International Journal of Molecular Sciences, 2021).
Where two headings read alike, the source gives them in different places. Where a SMILES comes first, the peptide text is derived from it. [ ]: non-standard residue; d: D form.

Assays:
[1] = Proteolytic stability in simulated gastric fluid (SGF); type: in vitro ADME
Experimental: (§1) Both compounds have already been extensively studied with respect to their in vivo pharmacokinetic profiles. Here, we performed some additional test to investigate the proteolytic stability of the compounds in simulated gastric (SGF) and intestinal fluid (SIF) and human plasma and human liver microsomes. The experiments were performed as described previously. According to the guidelines of the European Pharmacopoeia 7.0, SGF and SIF were prepared. Plasma was purchased from Biotrend with K3-EDTA as an anticoagulant (Biotrend, Köln, Germany). Human liver microsomes were pooled from different donors and purchased from Sekisui XenoTech (Kansas City, KS, USA). In order to determine whether the compounds RD2D3 and cRD2D3 are stable or would be metabolized, 150 µM of each compound was incubated in triplicate for defined time points slightly shaking at 37 °C in the media described above (SGF and SIF: 4 and 8 h, plasma: 8, 24 and 48 h and microsomes: 8 and 24 h). Incubation was stopped by precipitating the proteins. For this, 3% trichloroacetic acid (w/v) was added to the respective sample under vortexing followed by a centrifugation step (14,000× g at 4 °C for 5 min). For analysis, supernatants containing the compounds were collected. The precipitated media without compound was used as a control and as reference for the quantification served each medium with compound where the reaction was stopped immediately by precipitating the proteins. All samples were analyzed by RP-HPLC as previously described.

[2] = cited from earlier work
Text: Our society is aging and, with it, the number of diseases of old age, especially dementias, are increasing. Alzheimer’s disease (AD) is a devastating neurodegenerative disorder and the most common form of dementia worldwide. Its clinical symptoms are considered to be disturbances of memory, language, spatial and temporal orientation and cognitive decline. The pathological hallmarks of the disease are characterized by neurodegeneration, intracellular depositions of neurofibrillary tangles and extracellular accumulations of amyloid-β (Aβ) plaques.

[3] = target: T1, Aβ(1-42) (Homo sapiens, UniProt P05067); assay: SPR, Aβ(1-42) immobilized, D-peptide as analyte; type: binding; conditions: SPR Biacore T200, Aβ(1-42) immobilized on CM-5 chip by amine coupling, D-peptide analyte 0.625-20 µM, multicycle, 10 mM HEPES + 50 mM NaCl pH 7.4, 25 °C, steady-state Langmuir 1:1 fit (Fig. 1a)
T1 construct: Synthetic Aβ(1-42) and (Gln^22, Asn^23)-Amyloid β-Protein (1-40) (D/I Aβ) with >95% purity were purchased; purchased Bachem (Bubendorf, Switzerland); host or cells: chemical synthesis
T1 sequence (P05067 672-713): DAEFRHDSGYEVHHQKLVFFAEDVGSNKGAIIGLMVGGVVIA
Experimental: The dissociation constant (KD) of RD2D3 and cRD2D3 binding to Aβ(1-42) and D/I Aβ was determined by SPR spectroscopy using a Biacore T200 instrument (Biacore, GE Healthcare, Uppsala, Sweden). Aβ(1-42) or D/I Aβ was used as the ligand, while RD2D3 and cRD2D3 were used as the analyte or vice versa.
By using Aβ(1-42) or D/I Aβ as a ligand, it was immobilized onto a series S CM-5 sensor chip (GE Healthcare, Uppsala, Sweden) by amine coupling. In short, the flow cells were activated by a mixture of 50 mM N-hydroxysuccinimide (NHS) and 16.1 mM N-Ethyl-N’-(dimethylaminopropyl)carbodiimide (EDC) (XanTec, Düsseldorf, Germany) for 7 min. Aβ(1-42) or D/I Aβ were dissolved to a final concentration of 50 µg/mL in 10 mM sodium acetate pH 5 (AppliChem, Darmstadt, Germany) and injected over one of the activated flow cells to a final signal of 1700 RU. After the immobilization, the ligand and reference flow cells were quenched by injecting 1 M ethanolamine pH 8.5 (XanTec, Düsseldorf, Germany) for 7 min. […] The peptides were diluted in the running buffer to the following concentrations: 20 µM, 10 µM, 5 µM, 2.5 µM, 1.25 µM and 0.625 µM. All samples were injected over the flow cells for 180 s, followed by a dissociation step of 600 s with running buffer. Regeneration of the sensor chip was accomplished by a 45 s injection of 2 M of guanidinium hydrochloride (AppliChem, Darmstadt, Germany). […]

[4] = Proteolytic stability in simulated intestinal fluid (SIF); type: in vitro ADME
Experimental: as §1

[5] = target: T2, Aβ(1-42)-oligomers (Homo sapiens, UniProt P05067); assay: QIAD assay, Aβ(1-42) oligomer elimination; type: biochemical; conditions: 80 µM Aβ(1-42) preincubated 2 h, 20 µM D-peptide, 30 min coincubation, density gradient fractions 4-6, RP-HPLC UV 214 nm, N = 2-5
T2 construct: Synthetic Aβ(1-42) and (Gln^22, Asn^23)-Amyloid β-Protein (1-40) (D/I Aβ) with >95% purity were purchased; purchased Bachem (Bubendorf, Switzerland); host or cells: chemical synthesis
T2 sequence (P05067 672-713): as above
Experimental: According to Brener et al., a QIAD assay was performed in order to evaluate the Aβ(1-42) or D/I Aβ oligomer elimination efficacies of RD2D3 and cRD2D3 [18]. In short, 80 µM lyophilized Aβ(1-42) or 40 µM D/I Aβ was preincubated for 2 h or 15 min, respectively, to enrich Aβ-oligomers. Afterwards, either 20 µM RD2D3 or cRD2D3 for Aβ(1-42) or 10 µM RD2D3 or cRD2D3 for D/I Aβ were added to the preincubated solution and coincubated for additional 30 min. Subsequently, the samples were loaded on the top of a density gradient (5–50% (w/v) iodixanol (OptiPrep, Sigma-Aldrich, Darmstadt, Germany)) followed by an ultracentrifugation step (3 h at 4 °C and 259000× g (Optima TL-100, Beckman Coulter, Brea, CA, USA)). Following the ultracentrifugation, 14 fractions (140 µL each) were harvested by upward displacement. Fraction 15 contains the dissolved pellet in 6 M guanidine hydrochloride solution. Top fractions 1–2 contained Aβ-monomers, fractions 4–6 contained the Aβ-oligomers, which are of special interest, and the bottom fractions 11–14 contained high molecular weight (co-)precipitates or aggregated Aβ. Aβ(1-42) or D/I Aβ concentrations of each fraction were determined via analytical RP-HPLC and UV absorbance detection at 214 nm.

| Compound | remaining at 4 h, 150 µM ([1]; simulated gastric fluid) [%] | remaining at 8 h, 150 µM ([1]; simulated gastric fluid) [%] | Terminal half-life (in plasma) ([2]; mouse, in vivo) [h] | Kd [3] [µM] | remaining at 4 h, 150 µM ([4]; simulated intestinal fluid) [%] | remaining at 8 h, 150 µM ([4]; simulated intestinal fluid) [%] | Elimination of toxic Aβ(1-42)-oligomers (QIAD) [5] [%] | remaining at 4 h, 150 µM ([1]; simulated gastric fluid (SGF), simulated gastric fluid (Eur. Pharmacopoeia 7.0), 150 µM, 37 °C, 4 h, TCA precipitation, RP-HPLC, referenced to immediately stopped sample, mean of three independent experiments, read-out: Stability in SGF, 4 h) [%] | remaining at 8 h, 150 µM ([1]; simulated gastric fluid (SGF), simulated gastric fluid (Eur. Pharmacopoeia 7.0), 150 µM, 37 °C, 8 h, TCA precipitation, RP-HPLC, referenced to immediately stopped sample, mean of three independent experiments, read-out: Stability in SGF, 8 h) [%] | Brain concentrations relative to RD2D3 ([2]; C57BL/6 mice, i.v. and i.p. administration) | Terminal half-life (in plasma) ([2]; C57Bl/6 wild type mice, after i.v. and i.p. administration, ref 17 (b3)) [h] | Oral bioavailability [2] | remaining at 4 h, 150 µM ([4]; simulated intestinal fluid (SIF), simulated intestinal fluid (Eur. Pharmacopoeia 7.0), 150 µM, 37 °C, 4 h, TCA precipitation, RP-HPLC, referenced to immediately stopped sample, mean of three independent experiments, read-out: Stability in SIF, 4 h) [%] | remaining at 8 h, 150 µM ([4]; simulated intestinal fluid (SIF), simulated intestinal fluid (Eur. Pharmacopoeia 7.0), 150 µM, 37 °C, 8 h, TCA precipitation, RP-HPLC, referenced to immediately stopped sample, mean of three independent experiments, read-out: Stability in SIF, 8 h) [%] |
| --- | --- | --- | --- | --- | --- | --- | --- | --- | --- | --- | --- | --- | --- | --- |
| CC(C)C[C@@H](NC(=O)[C@@H](CCCNC(=N)N)NC(=O)[C@H](NC(=O)[C@@H](CCCNC(=N)N)NC(=O)[C@H]1CCCN1C(=O)[C@@H](CCCNC(=N)N)NC(=O)[C@@H](CCCNC(=N)N)NC(=O)[C@@H](CCCNC(=N)N)NC(=O)[C@@H](CCCNC(=N)N)NC(=O)[C@@H](CCCNC(=N)N)NC(=O)[C@@H](CCCNC(=N)N)NC(=O)[C@@H](CC(N)=O)NC(=O)[C@@H](Cc1c[nH]cn1)NC(=O)[C@H](NC(=O)[C@@H](Cc1c[nH]cn1)NC(=O)[C@@H](CC(C)C)NC(=O)[C@H](NC(=O)[C@H]1CCCN1)[C@H](C)O)[C@H](C)O)[C@H](C)O)C(=O)N[C@H](Cc1c[nH]cn1)C(=O)N[C@@H](C(=O)N[C@H](Cc1c[nH]cn1)C(=O)N[C@H](CCCNC(=N)N)C(=O)N[C@H](CC(N)=O)C(=O)N[C@H](CCCNC(=N)N)C(N)=O)[C@H](C)O [RD2D3] (H-[dP][dT][dL][dH][dT][dH][dN][dR][dR][dR][dR][dR][dR][dP][dR][dT][dR][dL][dH][dT][dH][dR][dN][dR]-NH2) | 100 | 100 | 2.3 | 7.01 ± 0.31 | 100 | 93.5 | – | – | – | – | – | – | – | – |
| CC(C)C[C@H]1NC(=O)[C@@H](CCCNC(=N)N)NC(=O)[C@@H]([C@H](C)O)NC(=O)[C@@H](CCCNC(=N)N)NC(=O)[C@H]2CCCN2C(=O)[C@@H](CCCNC(=N)N)NC(=O)[C@@H](CCCNC(=N)N)NC(=O)[C@@H](CCCNC(=N)N)NC(=O)[C@@H](CCCNC(=N)N)NC(=O)[C@@H](CCCNC(=N)N)NC(=O)[C@@H](CCCNC(=N)N)NC(=O)[C@@H](CC(N)=O)NC(=O)[C@@H](Cc2c[nH]cn2)NC(=O)[C@@H]([C@H](C)O)NC(=O)[C@@H](Cc2c[nH]cn2)NC(=O)[C@@H](CC(C)C)NC(=O)[C@@H]([C@H](C)O)NC(=O)[C@H]2CCCN2C(=O)[C@@H](CCCNC(=N)N)NC(=O)[C@@H](CC(N)=O)NC(=O)[C@@H](CCCNC(=N)N)NC(=O)[C@@H](Cc2c[nH]cn2)NC(=O)[C@@H]([C@H](C)O)NC(=O)[C@@H](Cc2c[nH]cn2)NC1=O [cRD2D3] (cyclo([dH][dN][dR][dR][dR][dR][dR][dR][dP][dR][dT][dR][dL][dH][dT][dH][dR][dN][dR][dP][dT][dL][dH][dT])) | – | – | – | 10.4 ± 0.61 | – | – | 80 | 99.5 | 99.7 | four to five times higher | 58 | high oral bioavailability | 96 | 87.2 |
